Where two headings read alike, the source gives them in different places.
How the values were obtained:
[1] = literature: Takahashi et al. 2004; cited from earlier work
[2] = tested on: men's medium- and long-distance runners; test: Confirmation test for suppression of exercise-induced hemolysis using astaxanthin; assay type: in vivo, human; conditions: compared with control group
Procedure: A confirmation test to confirm whether or not exercise-induced hemolysis that causes exercise-induced hemolytic anemia can be suppressed by orally taking a test food containing astaxanthin by a subject was conducted as follows.
Two types of test foods, a “capsules for astaxanthin group” containing a Haematococcus algae-derived pigment and a “capsules for control group” not containing the Haematococcus algae-derived pigment were prepared. Further, twenty-eight men's medium- and long-distance runners aged from 18 to 22 belonging to the athletic club of Tokai University as subjects were divided into two groups. Thirteen subjects were designated as the “astaxanthin group”, and fifteen subjects were designated as the “control group”. […]
Specifically, running training in the highlands was first conducted for 4 weeks, setting the period of running training in the highlands as “acclimatization period (Weeks 0 to 4)”, then blood samples were collected from the subjects of the “astaxanthin group” and the “control group”, to measure the number of erythrocytes (red blood cells), the hemoglobin content (amount of blood pigment; hemoglobin concentration), and the serum haptoglobin concentration. […] This test was conducted by observing the rate of change in the number of erythrocytes, the rate of change in the hemoglobin content (hemoglobin concentration), and the transition of the serum haptoglobin concentration from the start date to the end date of the observation period in each of the “astaxanthin group” and the “control group” thus measured. […]
The blood samples collected from the subjects of the “astaxanthin group” and the “control group” were treated with EDTA-2K to measure the number of erythrocytes using the sheath flow electrical resistance detection method. […] On the other hand, the collected blood samples were transferred to a tube containing EDTA-2Na and centrifuged to separate the plasma fraction, to measure the serum haptoglobin concentration using an ELISA kit for haptoglobin quantification (Quantikine Human Haptoglobin ELISA Kit (product code: DHAPGO), available from R&D Systems, Inc.). […]

[3] = tested on: ordinary people; test: Changes in number of erythrocytes and hemoglobin content of ordinary people (FIG. 3); assay type: in vivo, human; conditions: between before and after taking the test food
[4] = tested on: men's medium- and long-distance runners; test: Confirmation test for suppression of hemolysis due to oxidative damage (urinary 8-OHdG and isoprostane production rate); assay type: in vivo, human
Excerpt: In order to confirm whether or not hemolysis due to oxidative damage is suppressed in the “astaxanthin group” of Example 1 (whether or not oxidative damage to erythrocytes (red blood cells) is suppressed), the production rate of 8-OHdG and isoprostane contained in the urine of the subjects of the “astaxanthin group” and the “control group” was investigated during the “test period” of Weeks 0 to 8 through the “acclimatization period (Weeks 0 to 4)” and the “observation period (Weeks 4 to 8)” of Example 1. The period of the confirmation test was set to the “test period” of Weeks 0 to 8 through the “acclimatization period (Weeks 0 to 4)” and the “observation period (Weeks 4 to 8)” because there was no causal relationship of whether or not hemolysis occurred due to oxidative damage with whether running training was performed in the highlands or flatlands.
Specifically, this test was performed as follows. Urine was collected from the subjects of the “astaxanthin group” and the “control group” at Week 0 (start date of test food intake), Week 4, and Week 8 (last day of test food intake), and the production rate of 8-OHdG and the production rate of isoprostane were measured. Thereafter, their averages were calculated, and then the transitions of the averages of the production rate of 8-OHdG and the production rate of isoprostane from Week 0 to Week 8 in each of the “astaxanthin group” and the “control group” thus calculated were observed.
The 8-OHdG concentration in the urine collected from the subjects of the “astaxanthin group” and the “control group” was measured using a New 8-OHdG Check ELISA (ELISA kit for 8-OHdG (product code: KOG-2005/E), available from NIKKEN SEIL Co., Ltd.) by an ELISA method. The production rate of 8-OHdG per body weight and time was calculated by the formula shown below.
Production rate of 8-OHdG (ng/kg/hr)={8-OHdG concentration in urine (ng/mL)×volume of urine collected (mL)}/{elapsed time since the last urination (h)×body weight of subject (kg)}
The isoprostane concentration in the urine collected from the subjects of the “astaxanthin group” and the “control group” was measured using a urinary isoprostane measurement ELISA kit (8-iso-PGF2a ELISA kit (product code: ADI-900-010), available from Enzo Life Sciences) by an ELISA method. The production rate of isoprostane per body weight and time was calculated by the formula shown below.
Production rate of isoprostane (ng/kg/hr)={isoprostane concentration in urine (ng/mL)×volume of urine collected (mL)}/{elapsed time since the last urination (h)×body weight of subject (kg)} […]

[5] = cited from earlier work
[6] = tested on: men's medium- and long-distance runners; test: Confirmation test for antioxidant capacity (serum total antioxidant capacity); assay type: in vivo, human; conditions: test period Week 0 to Week 8; astaxanthin group versus control group
Procedure: In order to confirm the antioxidant capacity in the “astaxanthin group” of Example 1, the concentrations of water-soluble antioxidants contained in the serum of the subjects of the “astaxanthin group” and the “control group” were measured during the “test period” of Weeks 0 to 8 through the “acclimatization period (Weeks 0 to 4)” and the “observation period (Weeks 4 to 8)” of Example 1. The period of the confirmation test was set to the “test period” of Weeks 0 to 8 through the “acclimatization period (Weeks 0 to 4)” and the “observation period (Weeks 4 to 8)” because there was no causal relationship of the antioxidant capacity with whether running training was performed in the highlands or flatlands.
Specifically, this test was performed as follows. The blood samples were collected from the subjects of the “astaxanthin group” and the “control group” at Week 0 (start date of test food intake), Week 4, and Week 8 (last day of test food intake), to measure the concentrations of water-soluble antioxidants in serum and measure the total antioxidant capacity. Thereafter, the average was calculated, and the transition of the average of the total antioxidant capacity from Week 0 to Week 8 in each of the “astaxanthin group” and the “control group” thus calculated was observed. […]

Q: For `CC1=C(/C=C/C(C)=C/C=C/C(C)=C/C=C/C=C(C)/C=C/C=C(C)/C=C/C2=C(C)C(=O)C(O)CC2(C)C)C(C)(C)CC(O)C1=O` (stereo not drawn) [astaxanthin, 3,3′-dihydroxy-β,β-carotene-4,4′-dione], which mutagenicity [1] is on record?
A: no mutagenicity observed

Q: What about the “rate of change in the number of erythrocytes during the observation period” value ([2]; astaxanthin 12 mg/day oral (free form), observation period Weeks 4 to 8, running training in flatlands) of the same compound?
A: high

Q: And the “serum haptoglobin concentration on the start date of the observation period” value ([2]; astaxanthin 12 mg/day oral, Week 4)?
A: almost no difference

Q: What about the “serum haptoglobin concentration on the end date of the observation period” value ([2]; astaxanthin 12 mg/day oral, Week 8) of the same compound?
A: extremely high

Q: And the “rate of change in the hemoglobin content (hemoglobin concentration) during the observation period” value ([2]; astaxanthin 12 mg/day oral, observation period Weeks 4 to 8, running training in flatlands)?
A: also high

Q: And the “hemoglobin content (hemoglobin concentration)” value [3]?
A: no significant difference

Q: What about the number of erythrocytes [3] of the same compound?
A: no significant difference

Q: What about the “average of measured values of the production rate of isoprostane (urine)” value ([4]; Week 0, astaxanthin group compared with control group) of the same compound?
A: low

Q: And the “average of measured values of the production rate of isoprostane (urine)” value ([4]; Week 4 and Week 8, astaxanthin group versus control group)?
A: no difference observed

Q: What about the “average production rate (urine marker), comparison between before and after taking the test food” value ([4]; after intake compared with before intake (Week 0), within astaxanthin group) of the same compound?
A: increased after intake

Q: And the “average of measured values of the production rate of 8-OHdG (urine)” value ([4]; test period Week 0 to Week 8, astaxanthin group versus control group)?
A: no significant difference

Q: What about the “antioxidant activity relative to vitamin E” value [5] of the same compound?
A: 1000 times

Q: And the “antioxidant activity relative to vitamin E” value ([5]; listed as Astaxanthin)?
A: about 1,000 times

Q: And the “antioxidant activity relative to β-carotene” value ([5]; relative to β-carotene)?
A: about 40 times

Q: And the “average of measured values of the total antioxidant capacity (serum)” value [6]?
A: no significant difference

Source: patent US20220370380A1, “EXERCISE-INDUCED HEMOLYSIS SUPPRESSANT AND COMPOSITION FOR SUPPRESSING/IMPROVING EXERCISE-INDUCED HEMOLYTIC ANEMIA” (AstaReal Co., Ltd., priority 2019, published 2022)
